Measured values published in US8916702B2 (priority 2012, dated 2014).

system: HCV pseudoparticles (genotype 1a HCV E1 and E2 envelope, H77C isolate); test: microbe, parasite or virus in culture; format: cell-based; conditions: Hepatitis C virus, Huh-7, 48 h, HCV pseudoparticle infection of Huh7 cells, luciferase 2 days after infection; average of duplicates

| Compound | EC50 |
| --- | --- |
| C=Cc1ccc(NC(=O)C(=O)NCC(C)(C)CNC(=O)c2ccc(Nc3nc(NC4(c5ccc(Cl)cc5)CC4)nc(OCC(F)(F)F)n3)cc2)cc1 [Compound 1604] | 0.02 nM |
| COc1cccc(CCNC(=O)C(=O)NC[C@H](NC(=O)c2ccc(Nc3nc(NC4(c5ccc(Cl)cc5)CC4)nc(OCC(F)(F)F)n3)cc2)C(=O)O)c1 [Compound 1398] | 2.19 nM |
| CC(C)(C)CC(=O)N[C@H]1CC[C@@H](CNC(=O)C(=O)NC[C@H](NC(=O)c2ccc(Nc3nc(NC4(c5ccc(Cl)cc5)CC4)nc(OCC(F)(F)F)n3)cc2)C(=O)O)CC1 [Compound 1469] | 2.3 nM |
| O=C(NC[C@H](NC(=O)c1ccc(Nc2nc(NC3(c4ccc(Cl)cc4)CC3)nc(OCC(F)(F)F)n2)cc1)C(=O)O)C(=O)NC1CCC(O)CC1 (stereo partly drawn) [Compound 1078] | 11.9 nM |

same assay, conditions: Hepatitis C virus, Huh-7, 48 h, HCV pseudoparticles (genotype 1a, H77C) in Huh7 cells; average of duplicate; luciferase 2 days after infection

| Compound | EC50 |
| --- | --- |
| COC(=O)[C@@H](CCNC(=O)C(=O)Nc1cccc(OC(F)(F)F)c1)NC(=O)c1ccc(Nc2nc(NC3(c4ccc(Cl)cc4)CC3)nc(OCC(F)(F)F)n2)cc1 [Compound 3577] | 0.16 nM |
| Cc1ccc(NC(=O)C(=O)N2CCCC(CNC(=O)c3ccc(Nc4nc(NC5(c6ccc(Cl)cc6)CC5)nc(OCC(F)(F)F)n4)cc3)C2)cc1 (stereo not drawn) [Compound 3481] | 0.065 nM |

same assay, conditions: Hepatitis C virus, Huh-7, 48 h, read-out: Activity (EC50 class), HCV pseudoparticle infection of Huh7 cells, luciferase 2 days after infection; EC50 expressed as class A/B

| Compound | EC50 |
| --- | --- |
| COC(=O)[C@H](CNC(=O)C(=O)NC1CCC(F)(F)CC1)NC(=O)c1ccc(Nc2nc(NC3(c4ccc(Cl)cc4)CC3)nc(OCC(F)(F)F)n2)cc1 [Compound 1057] | 0.01 to 10 nM |
| COC(=O)[C@H](CNC(=O)C(=O)NCc1ccc(OC)c(OC)c1)NC(=O)c1ccc(Nc2nc(NC3(c4ccc(Cl)cc4)CC3)nc(OCC(F)(F)F)n2)cc1 [Compound 1152] | 0.01 to 10 nM |
| COC(=O)[C@H](CCNC(=O)C(=O)NCc1ccc(OC)c(OC)c1)NC(=O)c1ccc(Nc2nc(NC3(c4ccc(Cl)cc4)CC3)nc(OCC(F)(F)F)n2)cc1 [Compound 1144] | 0.01 to 10 nM |
| C=Cc1ccc(NC(=O)C(=O)NCC(C)(C)CNC(=O)c2ccc(Nc3nc(NC4(c5ccc(Cl)cc5)CC4)nc(OCC(F)(F)F)n3)cc2)cc1 [Compound 1604] | 0.01 to 10 nM |
| CC1CCC(NC(=O)C(=O)NC[C@H](NC(=O)c2ccc(Nc3nc(NC4(c5ccc(Cl)cc5)CC4)nc(OCC(F)(F)F)n3)cc2)C(=O)O)CC1 (stereo partly drawn) [Compound 1092] | 0.01 to 10 nM |
| O=C(NCC[C@@H](NC(=O)c1ccc(Nc2nc(NC3(c4ccc(Cl)cc4)CC3)nc(OCC(F)(F)F)n2)cc1)C(=O)O)C(=O)Nc1ccc(Cl)cc1 [Compound 1555] | 0.01 to 10 nM |
| COc1cccc(CCNC(=O)C(=O)NC[C@H](NC(=O)c2ccc(Nc3nc(NC4(c5ccc(Cl)cc5)CC4)nc(OCC(F)(F)F)n3)cc2)C(=O)O)c1 [Compound 1398] | 0.01 to 10 nM |
| CC(C)(CNC(=O)C(=O)Nc1ccc(F)cc1)CNC(=O)c1ccc(Nc2nc(NC3(c4ccc(Cl)cc4)CC3)nc(OCC(F)(F)F)n2)cc1 [Compound 1479] | 0.01 to 10 nM |
| COc1cccc(NC(=O)C(=O)NC[C@H](NC(=O)c2ccc(Nc3nc(NC4(c5ccc(Cl)cc5)CC4)nc(OCC(F)(F)F)n3)cc2)C(=O)O)c1 [Compound 1358] | 0.01 to 10 nM |
| CCCNC(=O)C(NC(=O)c1ccc(Nc2nc(NC3(c4ccc(Cl)cc4)CC3)nc(OCC(F)(F)F)n2)cc1)C1CCCN(C(=O)C(N)=O)C1 (stereo not drawn) [Compound 1019, N-(1-(1-(2-amino-2-oxoacetyl)piperidin-3-yl)-2-oxo-2-(propylamino)ethyl)-4-(4-(1-(4-chlorophenyl)cyclopropylamino)-6-(2,2,2-trifluoroethoxy)-1,3,5-triazin-2-ylamino)benzamide] | 0.01 to 10 nM |
| CC(C)(C)CC(=O)N[C@H]1CC[C@@H](CNC(=O)C(=O)NC[C@H](NC(=O)c2ccc(Nc3nc(NC4(c5ccc(Cl)cc5)CC4)nc(OCC(F)(F)F)n3)cc2)C(=O)O)CC1 [Compound 1469] | 0.01 to 10 nM |
| O=C(NC[C@H](NC(=O)c1ccc(Nc2nc(NC3(c4ccc(Cl)cc4)CC3)nc(OCC(F)(F)F)n2)cc1)C(=O)O)C(=O)NC1CCC(O)CC1 (stereo partly drawn) [Compound 1078] | 10 to 1000 nM |
| O=C(NCC[C@H](NC(=O)c1ccc(Nc2nc(NC3(c4ccc(Cl)cc4)CC3)nc(OCC(F)(F)F)n2)cc1)C(=O)O)C(=O)Nc1cccnc1 [Compound 1280] | 0.01 to 10 nM |
| NC(=O)C(=O)NCCC(NC(=O)c1ccc(Nc2nc(NC3(c4ccc(Cl)cc4)CC3)nc(OCC(F)(F)F)n2)cc1)C(=O)O (stereo in doubt) [Compound 1013, (S)-4-(2-amino-2-oxoacetamido)-2-(4-(4-(1-(4-chlorophenyl)cyclopropylamino)-6-(2,2,2-trifluoroethoxy)-1,3,5-triazin-2-ylamino)benzamido)butanoic acid] | 0.01 to 10 nM |
| CC(C)(CNC(=O)C(=O)Nc1ccc(C(=O)O)cc1)CNC(=O)c1ccc(Nc2nc(NC3(c4ccc(Cl)cc4)CC3)nc(OCC(F)(F)F)n2)cc1 [Compound 1457] | 0.01 to 10 nM |
| COC(=O)[C@H](CCNC(=O)C(=O)NCc1cccc(F)c1)NC(=O)c1ccc(Nc2nc(NC3(c4ccc(Cl)cc4)CC3)nc(OCC(F)(F)F)n2)cc1 [Compound 1139] | 0.01 to 10 nM |
| O=C(NCc1ccc(F)cc1F)C(=O)NC[C@H](NC(=O)c1ccc(Nc2nc(NC3(c4ccc(Cl)cc4)CC3)nc(OCC(F)(F)F)n2)cc1)C(=O)O [Compound 1168] | 0.01 to 10 nM |
| COC(=O)[C@@H](CCNC(=O)C(=O)NCC1(CO)CC1)NC(=O)c1ccc(Nc2nc(NC3(c4ccc(Cl)cc4)CC3)nc(OCC(F)(F)F)n2)cc1 [Compound 1380] | 0.01 to 10 nM |
| COC(=O)[C@H](CCNC(=O)C(=O)Nc1ccc(F)c(F)c1)NC(=O)c1ccc(Nc2nc(NC3(c4ccc(Cl)cc4)CC3)nc(OCC(F)(F)F)n2)cc1 [Compound 1505] | 0.01 to 10 nM |
| COC(=O)[C@H](CNC(=O)C(=O)Nc1cccc(F)c1)NC(=O)c1ccc(Nc2nc(NC3(c4ccc(Cl)cc4)CC3)nc(OCC(F)(F)F)n2)cc1 [Compound 1249] | 0.01 to 10 nM |

same assay, conditions: Hepatitis C virus, Huh-7, 48 h, read-out: Activity (EC50 class), HCV pseudoparticles, Huh7 cells, luciferase 2 days after infection; average of duplicates

| Compound | EC50 |
| --- | --- |
| CC(C)(CNC(=O)C(=O)Nc1nc2c(Cl)c(Cl)ccc2s1)CNC(=O)c1ccc(Nc2nc(NC3(c4ccc(Cl)cc4)CC3)nc(OCC(F)(F)F)n2)cc1 [Compound 3821] | 0.01 to 10 nM |
| C=Cc1cccc(NC(=O)C(=O)NCC(C)(C)CNC(=O)c2ccc(Nc3nc(NC4(c5ccc(Cl)cc5)CC4)nc(OCC(F)(F)F)n3)cc2)c1 [Compound 3670] | 0.01 to 10 nM |
| NC(=O)c1cccc(NC(=O)C(=O)NC[C@H](NC(=O)c2ccc(Nc3nc(NC4(c5ccc(Cl)cc5)CC4)nc(OCC(F)(F)F)n3)cc2)C(=O)Cl)c1 [Compound 3745] | 0.01 to 10 nM |
| CC(=O)Nc1ccc(NC(=O)C(=O)NC[C@H](NC(=O)c2ccc(Nc3nc(NC4(c5ccc(Cl)cc5)CC4)nc(OCC(F)(F)F)n3)cc2)C(=O)O)cn1 [Compound 3762] | 0.01 to 10 nM |
| CC(C)(CNC(=O)C(=O)Nc1nc2c(Cl)ccc(Cl)c2s1)CNC(=O)c1ccc(Nc2nc(NC3(c4ccc(Cl)cc4)CC3)nc(OCC(F)(F)F)n2)cc1 [Compound 3837] | 0.01 to 10 nM |
| O=C(NCC[C@H](NC(=O)c1ccc(Nc2nc(NC3(c4ccc(Cl)cc4)CC3)nc(OCC(F)(F)F)n2)cc1)C(=O)O)C(=O)Nc1cccc(Cc2ccccc2)c1 [Compound 3639] | 0.01 to 10 nM |
| COC(=O)[C@H](CNC(=O)C(=O)Nc1cccc(-c2cccnc2)c1)NC(=O)c1ccc(Nc2nc(NC3(c4ccc(Cl)cc4)CC3)nc(OCC(F)(F)F)n2)cc1 [Compound 3728] | 0.01 to 10 nM |

same assay, conditions: Hepatitis C virus, Huh-7, read-out: Activity (EC50 class), HCV pseudoparticles (genotype 1a, H77C) in Huh7 cells; EC50 expressed as class A/B

| Compound | EC50 |
| --- | --- |
| COC(=O)[C@@H](CCNC(=O)C(=O)Nc1cccc(OC(F)(F)F)c1)NC(=O)c1ccc(Nc2nc(NC3(c4ccc(Cl)cc4)CC3)nc(OCC(F)(F)F)n2)cc1 [Compound 3577] | 0.01 to 10 nM |
| Cc1nnnn1-c1ccc(NC(=O)C(=O)NCC[C@H](NC(=O)c2ccc(Nc3nc(NC4(c5ccc(Cl)cc5)CC4)nc(OCC(F)(F)F)n3)cc2)C(=O)O)cc1 [Compound 3236] | 0.01 to 10 nM |
| Cc1nc(-c2ccc(NC(=O)C(=O)NCCC(NC(=O)c3ccc(Nc4nc(NC5(c6ccc(Cl)cc6)CC5)nc(OCC(F)(F)F)n4)cc3)C(=O)O)cc2)cs1 (stereo not drawn) [Compound 3528] | 0.01 to 10 nM |
| COC(=O)[C@H](CCNC(=O)C(=O)Nc1ccc(OCCc2ccccn2)cc1)NC(=O)c1ccc(Nc2nc(NC3(c4ccc(Cl)cc4)CC3)nc(OCC(F)(F)F)n2)cc1 [Compound 3315] | 0.01 to 10 nM |
| O=C(NC[C@H](NC(=O)c1ccc(Nc2nc(NC3(c4ccc(Cl)cc4)CC3)nc(OCC(F)(F)F)n2)cc1)C(=O)O)C(=O)Nc1ccc(Cn2cncn2)cc1 [Compound 3267] | 0.01 to 10 nM |
| O=C(NCC[C@H](NC(=O)c1ccc(Nc2nc(NC3(c4ccc(Cl)cc4)CC3)nc(OCC(F)(F)F)n2)cc1)C(=O)O)C(=O)Nc1ccc(-n2cccn2)cc1 [Compound 3237] | 0.01 to 10 nM |
| COC(=O)[C@H](CNC(=O)C(=O)Nc1ccc(C(=O)N2CCOCC2)cc1)NC(=O)c1ccc(Nc2nc(NC3(c4ccc(Cl)cc4)CC3)nc(OCC(F)(F)F)n2)cc1 [Compound 3099] | 0.01 to 10 nM |
| O=C(Nc1ccccc1)C(=O)N1CCCC(CNC(=O)c2ccc(Nc3nc(NC4(c5ccc(Cl)cc5)CC4)nc(OCC(F)(F)F)n3)cc2)C1 (stereo not drawn) [Compound 3488] | 0.01 to 10 nM |
| COC(=O)[C@H](CNC(=O)C(=O)Nc1ccc(OC(F)F)cc1)NC(=O)c1ccc(Nc2nc(NC3(c4ccc(Cl)cc4)CC3)nc(OCC(F)(F)F)n2)cc1 [Compound 3215] | 0.01 to 10 nM |
| CCOCCOc1ccc(NC(=O)C(=O)NCCC(NC(=O)c2ccc(Nc3nc(NC4(c5ccc(Cl)cc5)CC4)nc(OCC(F)(F)F)n3)cc2)C(=O)O)cc1 (stereo not drawn) [Compound 3530] | 0.01 to 10 nM |
| COC(=O)[C@@H](CCNC(=O)C(=O)Nc1cccc(C(=O)Nc2ccccc2)c1)NC(=O)c1ccc(Nc2nc(NC3(c4ccc(Cl)cc4)CC3)nc(OCC(F)(F)F)n2)cc1 [Compound 3575] | 0.01 to 10 nM |
| CC(C)(CNC(=O)C(=O)Nc1ncc(F)s1)CNC(=O)c1ccc(Nc2nc(NC3(c4ccc(Cl)cc4)CC3)nc(OCC(F)(F)F)n2)cc1 [Compound 3239] | 0.01 to 10 nM |
| O=C(NCC[C@H](NC(=O)c1ccc(Nc2nc(NC3(c4ccc(Cl)cc4)CC3)nc(OCC(F)(F)F)n2)cc1)C(=O)O)C(=O)Nc1ccc(Oc2cccnc2)cc1 [Compound 3545] | 0.01 to 10 nM |
| CN(CCCN(C)C(=O)c1ccc(Nc2nc(NC3(c4ccc(Cl)cc4)CC3)nc(OCC(F)(F)F)n2)cc1)C(=O)C(=O)Nc1ccc(F)cc1 [Compound 3412] | 0.01 to 10 nM |
| Cc1cc(NC(=O)C(=O)NCC(C)(C)CNC(=O)c2ccc(Nc3nc(NC4(c5ccc(Cl)cc5)CC4)nc(OCC(F)(F)F)n3)cc2)ccc1F [Compound 3060] | 0.01 to 10 nM |
| CC(C)(CNC(=O)c1ccc(Nc2nc(NC3(c4ccc(Cl)cc4)CC3)nc(OCC(F)(F)F)n2)cc1)NC(=O)C(=O)Nc1cc(F)cc(F)c1 [Compound 3424] | 0.01 to 10 nM |
| Cc1ccc(NC(=O)C(=O)N2CCCC(CNC(=O)c3ccc(Nc4nc(NC5(c6ccc(Cl)cc6)CC5)nc(OCC(F)(F)F)n4)cc3)C2)cc1 (stereo not drawn) [Compound 3481] | 0.01 to 10 nM |
| COC(=O)c1cccc(-c2ccccc2NC(=O)C(=O)NCC(C)(C)CNC(=O)c2ccc(Nc3nc(NC4(c5ccc(Cl)cc5)CC4)nc(OCC(F)(F)F)n3)cc2)c1 [Compound 3045] | 0.01 to 10 nM |
